According to patent publication EP0123528B1, “Pharmaceutical composition for the treatment of hair loss” (Mortimer, Christopher Harry, Dr., priority 1983, dated 1984):

What was measured:
common baldness in men = assay: Unit Area Trichogram (hair density); format: in vivo; conditions: for producing hair growth in common baldness: alone: oestradiol benzoate 0.1%, medroxyprogesterone acetate 0.1%, 3,3-,5-triiodo-L-thyronine 20 pg in 3 ml of solution, or any two of the three
[1] = Hormone results during treatment; format: in vivo; conditions: patient, after 6 months of systemic treatment
Protocol: Initially […] began treatment with medroxyprogesterone acetate starting with 5 mg daily increasing to 40 mg daily at 6 months.
At this time the following hormone results were obtained:
After 6 months of the same dose of systemic medroxyprogesterone acetate plus Trichogen II the following results were obtained: […]

[2] = Semen analysis during treatment; format: in vivo, patient; conditions: after 6 months of systemic treatment
Protocol: Initially […] began treatment with medroxyprogesterone acetate starting with 5 mg daily increasing to 40 mg daily at 6 months. At this time the following hormone results were obtained: After 6 months of the same dose of systemic medroxyprogesterone acetate plus Trichogen II the following results were obtained: […]

## N[C@H](Cc1cc(I)c(Oc2ccc(O)c(I)c2)c(I)c1)C(=O)O [3,3-,5-triiodo-D-thyronine free acid, 3,3-,5-Triiodo-D-thyronine free acid]
Common baldness in men; topical, in any concentration
  substitute for the -L-form of 3,3-,5-triiodothyronine: not an effective substitute

## N[C@@H](Cc1cc(I)c(Oc2ccc(O)c(I)c2)c(I)c1)C(=O)O [3,3-,5-triiodo-L-thyronine]
Common baldness in men; topical
  producing hair growth in common baldness: not effective

## CC(=O)O[C@]1(C(C)=O)CC[C@H]2[C@@H]3C[C@H](C)C4=CC(=O)CC[C@]4(C)[C@H]3CC[C@@]21C [medroxyprogesterone acetate]
[1]; 5 mg daily increasing to 40 mg daily, n 10—32
  Testosterone: 27.0 nmol/L
[1]; 5 to 40 mg daily, n 0.7—2.7
  Dihydrotestosterone: 2.1 nmol/L
[1]; 5 to 40 mg daily, n 18—40
  SHBG: 36.0 nmol/L
[1]; 5 to 40 mg daily, n 50—180
  Oestradiol: 171.0 pmol/L
[1]; n 0.6—6.0
  17 Alpha hydroxyprogesterone: 10.1 nmol/L
[1]; n 3.1—10.0
  Androstenedione: 4.9 nmol/L
[1]; n 5—9
  Dehydroepiandrosterone sulphate (DHEAS): 9.4 µmol/L
Common baldness in men; patient, after 6 months of systemic treatment, before treatment 215, n 232—340
  Meaningful hair density (hairs greater than 40 µm in diameter/cm^2), Frontal: 179 (n 232—340) hairs/cm^2
Common baldness in men; patient, after 6 months of systemic treatment, before treatment 246, n 213—317
  Meaningful hair density (hairs greater than 40 µm in diameter/cm^2), Occipital: 271 (n 213—317) hairs/cm^2
Common baldness in men; patient, after 6 months of systemic treatment, before treatment 251, n 261—356
  Total hair density, Occipital: 280 (n 261—356) hairs/cm^2
Common baldness in men; patient, after 6 months of systemic treatment, before treatment 263, n 256—393
  Total hair density, Frontal: 248 (n 256—393) hairs/cm^2
Common baldness in men; topical
  producing hair growth in common baldness: not effective
[2]; patient (previous orchidopexy), n greater than 80 millions
  Semen analysis: Total count: 5 millions
[2]; patient, n greater than 60%
  Semen analysis: Motility: 10%
[2]; patient, n up to 25%
  Semen analysis: Abnormal forms: 35%

## C[C@]12CC[C@@H]3c4ccc(OC(=O)c5ccccc5)cc4CC[C@H]3[C@@H]1CC[C@@H]2O [oestradiol benzoate]
Common baldness in men; topical
  producing hair growth in common baldness: not effective
